Measured values from PMC11785709, “Angelica gigas Nakai (Korean Dang-gui) Root Alcoholic Extracts in Health Promotion and Disease Therapy – active Phytochemicals and In Vivo Molecular Targets” (Pharmaceutical Research, 2025).
Several values for one entry are separate records, joined by “and”; a condition that tells them apart may be missing. Identical values can stand only once.

Legend:
HepG2 cells = tested on: HepG2 cells; parameters: method as in earlier work; details: free fatty acid mixture (oleate:palmitate = 2:1); cited from earlier work
[1] = tested on: rat hypothalamic primary neuronal cells; parameters: method as in PMID 28066138; details: cited from earlier work
DSS-induced colitis = tested on: DSS-induced colitis; parameters: method as in PMID 30917627; details: ip every other day 0.4 and 4 mg/kg; cited from earlier work
[2] = tested on: adipose stem cells (ASCs); parameters: method as in PMID 31861646; details: cited from earlier work
GDH = tested on: GDH; parameters: method as in PMID 36455296; details: read-out: GDH inhibition IC50; cited from earlier work
[3] = tested on: acute thermal pain models and CINP; parameters: method as in PMID 36249788; details: cited from earlier work
[4] = tested on: serotonin (5-hydroxytryptamine) level; parameters: method as in PMID 19801740; details: DOH gavage, highest at 10 mg DOH/kg in frontal cortex and striatum; cited from earlier work
CDK9 = CDK9 (Homo sapiens, UniProt P50750); experiment: KINOMEscan competition binding; parameters: purchased Eurofins DiscoverX (KINOMEscan)
CDK9, sequence (P50750 whole entry): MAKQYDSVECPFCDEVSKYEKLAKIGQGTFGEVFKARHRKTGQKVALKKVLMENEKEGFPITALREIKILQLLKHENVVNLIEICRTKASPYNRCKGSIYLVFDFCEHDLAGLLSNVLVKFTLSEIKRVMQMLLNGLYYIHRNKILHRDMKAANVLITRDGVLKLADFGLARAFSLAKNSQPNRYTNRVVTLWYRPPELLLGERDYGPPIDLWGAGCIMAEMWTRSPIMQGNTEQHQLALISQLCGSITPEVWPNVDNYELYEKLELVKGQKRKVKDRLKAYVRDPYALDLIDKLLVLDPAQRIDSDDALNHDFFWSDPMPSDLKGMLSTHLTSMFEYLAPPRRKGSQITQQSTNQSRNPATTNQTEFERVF
Experimental: Two distinct platforms were used for initial screening with 50 µM DOH vs. DMSO vehicle. The first was the Eurofins DiscoverX KINOMEscan® (Freemont, CA USA) profiling platform, which employed a proprietary active site-directed competition binding assay to quantitatively measure interactions between a test compound (i.e., DOH) and 468 human protein kinases and disease relevant mutant variants either directly (sterically) or indirectly (allosterically) to prevent a kinase binding to its immobilized substrate (ligand). The top 8 hits were subjected to secondary screening verification by DOH concentration-titration for dissociation constant (Kd). For ROCK1 and ROCK2, DA was chosen for Kd titration as well, because it is ~ 10 × higher than D in peripheral circulation due to its resistance to hydrolysis by carboxyesterase-2 (Fig. 1C).

acute pain models = tested on: acute pain models; parameters: method as in PMID 12759141; details: cited from earlier work
AChE = tested on: AChE; parameters: method as in PMID 11374978; details: read-out: AChE inhibition IC50; cited from earlier work
LKB1 = target: T1, LKB1 (Homo sapiens, UniProt Q15831); experiment: Reaction Biology kinase activity inhibition; format: biochemical; details: activity screening, DOH at 50 μM
T1 construct: purchased Reaction Biology (Malvern, PA)
T1 sequence (Q15831 whole entry): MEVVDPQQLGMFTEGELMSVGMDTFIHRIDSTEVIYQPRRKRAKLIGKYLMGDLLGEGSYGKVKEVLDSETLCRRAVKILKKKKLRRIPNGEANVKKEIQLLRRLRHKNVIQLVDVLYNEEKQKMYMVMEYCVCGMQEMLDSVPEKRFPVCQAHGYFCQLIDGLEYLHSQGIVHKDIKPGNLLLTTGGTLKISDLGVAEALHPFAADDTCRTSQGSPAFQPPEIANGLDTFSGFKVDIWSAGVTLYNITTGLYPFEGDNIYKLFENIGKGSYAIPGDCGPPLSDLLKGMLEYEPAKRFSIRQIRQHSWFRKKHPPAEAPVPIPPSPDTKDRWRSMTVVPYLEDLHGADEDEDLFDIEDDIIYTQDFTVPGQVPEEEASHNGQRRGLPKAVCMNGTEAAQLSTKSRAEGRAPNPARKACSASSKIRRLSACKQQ
T1 sequence (Q7RTN6 whole entry partner): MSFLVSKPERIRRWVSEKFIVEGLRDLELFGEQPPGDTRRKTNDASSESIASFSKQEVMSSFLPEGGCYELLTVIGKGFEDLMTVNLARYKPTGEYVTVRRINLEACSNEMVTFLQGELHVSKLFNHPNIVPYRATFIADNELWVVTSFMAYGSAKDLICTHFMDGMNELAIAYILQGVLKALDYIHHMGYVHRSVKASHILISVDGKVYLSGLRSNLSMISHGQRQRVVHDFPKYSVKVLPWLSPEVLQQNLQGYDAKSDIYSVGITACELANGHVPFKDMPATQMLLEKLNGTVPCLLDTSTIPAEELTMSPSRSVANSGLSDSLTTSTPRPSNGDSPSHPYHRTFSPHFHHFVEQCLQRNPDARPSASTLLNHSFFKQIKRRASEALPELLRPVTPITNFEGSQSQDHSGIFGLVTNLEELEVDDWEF
T1 sequence (Q9Y376 whole entry partner): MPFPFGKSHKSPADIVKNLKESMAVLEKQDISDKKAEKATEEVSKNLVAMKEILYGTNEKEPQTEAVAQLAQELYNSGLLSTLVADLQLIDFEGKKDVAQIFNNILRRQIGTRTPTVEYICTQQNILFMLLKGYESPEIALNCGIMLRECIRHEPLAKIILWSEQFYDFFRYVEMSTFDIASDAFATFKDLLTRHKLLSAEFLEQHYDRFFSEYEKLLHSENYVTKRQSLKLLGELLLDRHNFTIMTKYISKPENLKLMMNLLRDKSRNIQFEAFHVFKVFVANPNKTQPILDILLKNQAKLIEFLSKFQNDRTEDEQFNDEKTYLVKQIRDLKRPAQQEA
Procedure, shortened: (§1)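 γ-^33P-ATP radioisotope readout; >600 protein/lipid kinase panel screen; IC50 confirmation from 5-point concentration series, curve-fitted.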

STK21/CIT = target: T2, STK21/CIT (Homo sapiens, UniProt O14578); experiment: Reaction Biology kinase activity inhibition; format: biochemical; details: initial screening
T2 construct: purchased Reaction Biology
T2 sequence (O14578 whole entry): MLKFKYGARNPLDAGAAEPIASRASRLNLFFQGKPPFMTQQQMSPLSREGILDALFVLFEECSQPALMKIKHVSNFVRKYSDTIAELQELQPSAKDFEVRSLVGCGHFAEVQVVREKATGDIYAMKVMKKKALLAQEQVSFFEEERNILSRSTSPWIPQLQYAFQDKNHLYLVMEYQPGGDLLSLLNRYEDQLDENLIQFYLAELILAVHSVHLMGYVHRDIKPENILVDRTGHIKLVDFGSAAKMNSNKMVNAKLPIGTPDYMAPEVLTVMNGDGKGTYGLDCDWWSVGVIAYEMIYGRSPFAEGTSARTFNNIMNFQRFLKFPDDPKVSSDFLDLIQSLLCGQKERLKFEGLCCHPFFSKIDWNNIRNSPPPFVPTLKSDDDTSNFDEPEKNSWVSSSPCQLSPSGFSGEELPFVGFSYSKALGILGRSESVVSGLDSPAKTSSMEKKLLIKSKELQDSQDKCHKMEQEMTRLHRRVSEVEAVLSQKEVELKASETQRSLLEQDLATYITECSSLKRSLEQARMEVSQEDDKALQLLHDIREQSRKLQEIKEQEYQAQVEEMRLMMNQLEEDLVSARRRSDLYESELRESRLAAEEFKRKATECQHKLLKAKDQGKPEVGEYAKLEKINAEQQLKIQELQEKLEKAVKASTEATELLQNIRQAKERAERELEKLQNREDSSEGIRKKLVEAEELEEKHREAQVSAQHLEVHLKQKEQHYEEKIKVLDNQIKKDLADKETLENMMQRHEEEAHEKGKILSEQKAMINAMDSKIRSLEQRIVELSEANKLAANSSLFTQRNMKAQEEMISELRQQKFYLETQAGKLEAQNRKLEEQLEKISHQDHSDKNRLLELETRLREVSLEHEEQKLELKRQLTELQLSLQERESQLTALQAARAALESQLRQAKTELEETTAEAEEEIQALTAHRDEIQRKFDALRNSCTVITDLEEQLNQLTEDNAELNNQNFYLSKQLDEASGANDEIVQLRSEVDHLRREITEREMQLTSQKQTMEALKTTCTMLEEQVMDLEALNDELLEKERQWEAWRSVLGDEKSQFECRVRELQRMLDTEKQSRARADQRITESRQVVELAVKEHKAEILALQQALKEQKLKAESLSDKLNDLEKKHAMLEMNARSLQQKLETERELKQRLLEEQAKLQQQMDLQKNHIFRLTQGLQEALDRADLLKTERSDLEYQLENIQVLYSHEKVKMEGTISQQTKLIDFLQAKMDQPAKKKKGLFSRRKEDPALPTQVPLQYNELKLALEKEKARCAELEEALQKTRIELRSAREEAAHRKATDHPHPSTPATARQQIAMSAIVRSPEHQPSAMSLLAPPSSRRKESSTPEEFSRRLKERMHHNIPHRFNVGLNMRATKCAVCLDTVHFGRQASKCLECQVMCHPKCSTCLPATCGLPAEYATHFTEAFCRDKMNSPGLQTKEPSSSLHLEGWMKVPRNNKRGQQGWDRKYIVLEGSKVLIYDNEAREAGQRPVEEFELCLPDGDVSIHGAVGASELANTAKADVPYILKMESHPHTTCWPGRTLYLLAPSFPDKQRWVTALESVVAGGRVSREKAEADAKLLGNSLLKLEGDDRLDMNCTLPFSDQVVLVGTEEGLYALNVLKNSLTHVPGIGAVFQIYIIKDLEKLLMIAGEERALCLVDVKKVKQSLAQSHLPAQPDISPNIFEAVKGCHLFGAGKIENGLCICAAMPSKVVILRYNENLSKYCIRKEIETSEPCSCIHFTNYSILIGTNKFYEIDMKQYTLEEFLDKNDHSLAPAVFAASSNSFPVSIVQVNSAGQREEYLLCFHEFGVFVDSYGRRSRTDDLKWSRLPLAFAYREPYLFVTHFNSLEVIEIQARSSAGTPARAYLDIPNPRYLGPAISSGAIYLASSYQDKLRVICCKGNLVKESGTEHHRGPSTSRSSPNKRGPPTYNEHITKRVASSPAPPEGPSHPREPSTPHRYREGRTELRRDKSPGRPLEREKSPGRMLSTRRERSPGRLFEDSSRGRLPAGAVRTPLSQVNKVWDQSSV
Procedure, shortened: as §1

BRSK1 = target: T3, BRSK1 (Homo sapiens, UniProt Q8TDC3); experiment: Reaction Biology kinase activity inhibition; format: biochemical; details: initial screening
T3 construct: purchased Reaction Biology
T3 sequence (Q8TDC3 1-778): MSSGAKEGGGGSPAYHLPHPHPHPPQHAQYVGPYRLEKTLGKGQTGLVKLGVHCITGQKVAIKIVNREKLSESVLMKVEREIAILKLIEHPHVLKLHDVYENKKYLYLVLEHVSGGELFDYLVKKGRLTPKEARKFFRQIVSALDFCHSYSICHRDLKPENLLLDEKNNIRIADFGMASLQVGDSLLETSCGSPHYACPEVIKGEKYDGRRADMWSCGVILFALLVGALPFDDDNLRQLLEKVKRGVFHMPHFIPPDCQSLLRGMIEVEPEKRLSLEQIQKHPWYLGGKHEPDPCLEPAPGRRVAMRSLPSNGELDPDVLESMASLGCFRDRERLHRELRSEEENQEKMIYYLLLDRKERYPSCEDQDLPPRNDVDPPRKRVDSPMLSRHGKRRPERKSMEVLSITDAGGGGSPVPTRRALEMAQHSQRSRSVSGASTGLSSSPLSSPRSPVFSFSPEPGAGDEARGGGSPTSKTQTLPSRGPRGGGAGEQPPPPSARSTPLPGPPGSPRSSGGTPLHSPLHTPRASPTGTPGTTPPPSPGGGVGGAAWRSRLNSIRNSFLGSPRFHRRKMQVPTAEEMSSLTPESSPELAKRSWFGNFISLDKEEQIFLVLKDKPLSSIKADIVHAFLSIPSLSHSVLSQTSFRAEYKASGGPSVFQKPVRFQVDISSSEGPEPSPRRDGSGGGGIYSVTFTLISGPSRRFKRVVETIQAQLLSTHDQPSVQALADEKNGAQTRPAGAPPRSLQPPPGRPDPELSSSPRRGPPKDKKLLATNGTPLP
Procedure, shortened: as §1

PIM1 = target: T4, PIM1 (Homo sapiens, UniProt P11309); experiment: Reaction Biology kinase activity inhibition; format: biochemical; details: initial screening
T4 construct: purchased Reaction Biology
T4 sequence (P11309 whole entry): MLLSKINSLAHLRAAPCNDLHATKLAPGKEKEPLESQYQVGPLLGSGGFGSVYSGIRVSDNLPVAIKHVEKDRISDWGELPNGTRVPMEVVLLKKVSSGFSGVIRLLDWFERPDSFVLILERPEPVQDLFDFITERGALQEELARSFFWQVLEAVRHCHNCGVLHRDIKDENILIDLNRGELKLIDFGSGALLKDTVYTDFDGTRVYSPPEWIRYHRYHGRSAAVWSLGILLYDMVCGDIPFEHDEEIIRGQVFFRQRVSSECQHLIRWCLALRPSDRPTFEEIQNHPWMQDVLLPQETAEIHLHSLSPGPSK
Procedure, shortened: as §1

[5] = tested on: BOCCA and MCAO ischemic damage; parameters: method as in PMID 19801740; details: 20 mg/kg, pre or post-treatment; cited from earlier work
experimental sepsis = tested on: experimental sepsis; parameters: method as in PMID 20157398; details: ip 1 ~ 100 mg/kg before LPS/GalN or high-dose LPS (20 mg/kg); cited from earlier work
CLP microbial exposure = details: ip twice at 2 h and 4 h after CLP; cited from earlier work
[6] = DOH (50 µM), Data 1 and Data 2, read-out: % Enzyme Activity (relative to DMSO controls)

SMILES: C/C=C(/C)C(=O)O[C@H]1Cc2cc3ccc(=O)oc3cc2OC1(C)C [DA, decursinol angelate]
- lipid accumulation (HepG2 cells): suppressed lipid accumulation
- intracellular Cl- influx level ([1]; DA 0.001, 0.01 and 0.1 µg/ml ≈ 0.003, 0.03 and 0.3 µM): increased
- protein expression of GAD65/67 and GABAA receptor subtypes [1]: increased the protein expression
- severity of colitis (DSS-induced colitis): attenuated the severity of colitis
- adipocyte differentiation [2]: significantly inhibited adipocyte differentiation
- IC50 (GDH): ~1400 nM and 1400 nM

SMILES: CC1(C)Oc2cc3oc(=O)ccc3cc2C[C@@H]1O [DOH, decursinol]
- hypothermia and sedation (ataxia) [3]: dose dependent hypothermia
- antinociception in hot plate and tail-flick assays ([3]; ip DOH 50 mg/kg): replicated antinociception effects
- mechanical allodynia of mice with cisplatin-neuropathy (Von Fry test) ([3]; ip DOH 50 mg/kg): reversed the mechanical allodynia
- time to tolerance development ([3]; once-daily ip, hot plate, tail-flick and CINP mice): ~ 10 days
- serotonin (5-hydroxytryptamine) level in brain [4]: increase
- kinase bound, % of control at 50 µM (CDK9; read-out: Substrate bound % Control): 12%
- Kd (CDK9; validation Kd titration, 0.003 to 50 µM): > 50000 nM
- anti-nociceptive ED50 (acute pain models; gavaged DOH 5 to 200 mg/kg): ~ 50 mg/kg
- peak time of anti-nociceptive efficacy (acute pain models; post dose): 30 min
- IC50 (AChE): 28000 nM
- inhibition of kinase activity (LKB1): no inhibition
- inhibition at 50 µM (STK21/CIT; DOH 50 µM): 28.3%
- % Enzyme Activity (relative to DMSO controls) (STK21/CIT; DOH (50 µM), Data 1 and Data 2): 71.1%
- remaining activity at 50 µM (STK21/CIT; [6]): 72.2%
- inhibition at 50 µM (BRSK1; DOH 50 µM): 29.7%
- % Enzyme Activity (relative to DMSO controls) (BRSK1; DOH (50 µM), Data 1 and Data 2): 69.5%
- remaining activity at 50 µM (BRSK1; [6]): 71.1%
- inhibition at 50 µM (PIM1; DOH 50 µM): 38.5%
- % Enzyme Activity (relative to DMSO controls) (PIM1; DOH (50 µM), Data 1 and Data 2): 60.3%
- remaining activity at 50 µM (PIM1; [6]): 62.7%
- protection against ischemia stroke models [5]: failed to protect
- reduction of sepsis lethality ED50 (experimental sepsis): ~ 10 mg/kg
- dose giving plateau of therapeutic benefit (CLP microbial exposure): ≥ 10 mg/kg
